From ChEMBL document CHEMBL1212789, “Activity and toxicity of farnesol towards Candida albicans are dependent on growth conditions” (Antimicrob Agents Chemother, 2010)
Active and inactive are the calls of the source. No cut-off for these calls is given here.

Experiments:
Assay type in all cases: functional, organism-based
Candida albicans [1] = experiment: Antifungal activity against exponential phase culture of Candida albicans in YPD medium at 10 to 300 uM at 37 degC after 24 hrs by methylene blue assay
Candida albicans [2] = experiment: Antifungal activity against stationary phase culture of Candida albicans in GPP medium at 10 to 300 uM at 37 degC after 24 hrs by methylene blue assay
Candida albicans [3] = experiment: Antifungal activity against exponential phase culture of Candida albicans in GPP medium at 10 to 300 uM at 37 degC after 24 hrs by methylene blue assay
Candida albicans [4] = experiment: Antifungal activity against exponential phase culture of Candida albicans in GPP medium at 10 to 300 uM at 25 degC after 24 hrs by methylene blue assay
Candida albicans [5] = experiment: Antifungal activity against Candida albicans in YPD medium up to 300 uM after 24 hrs by methylene blue assay
Candida albicans [6] = experiment: Antifungal activity against Candida albicans in YPD medium at => 300 uM after 24 hrs by methylene blue assay
Candida albicans [7] = experiment: Antifungal activity against stationary phase culture of Candida albicans in GPP medium at 10 to 300 uM at 25 degC after 24 hrs by methylene blue assay
Candida albicans [8] = experiment: Antifungal activity against log phase culture of Candida albicans at 10 to 300 uM treated directly to growing cultures measured after 4 hrs by methylene blue assay
Candida albicans [9] = experiment: Antifungal activity against log phase culture of Candida albicans in GPP medium at 300 uM after 4 hrs by methylene blue assay
Candida albicans [10] = experiment: Antifungal activity against stationary phase culture of Candida albicans in YPD medium at 10 to 300 uM at 25 degC after 24 hrs by methylene blue assay
Candida albicans [11] = experiment: Antifungal activity against exponential phase culture of Candida albicans in YPD medium at 10 to 300 uM at 30 degC after 24 hrs by methylene blue assay
Candida albicans [12] = experiment: Antifungal activity against log phase culture of Candida albicans in GPP medium at 100 uM after 1 hr by methylene blue assay
Candida albicans [13] = experiment: Antifungal activity against exponential phase culture of Candida albicans in GPP medium at 10 to 300 uM at 30 degC after 24 hrs by methylene blue assay
Candida albicans [14] = experiment: Antifungal activity against stationary phase culture of Candida albicans in YPD medium at 10 to 300 uM at 37 degC after 24 hrs by methylene blue assay
Candida albicans [15] = experiment: Antifungal activity against log phase culture of Candida albicans in GPP medium at 40 uM after 24 hrs by methylene blue assay
Candida albicans [16] = experiment: Antifungal activity against exponential phase culture of Candida albicans in GPP medium at 40 uM after 24 hrs by methylene blue assay
Candida albicans [17] = experiment: Antifungal activity against exponential phase culture of Candida albicans in YPD medium at 10 to 300 uM at 25 degC after 24 hrs by methylene blue assay
Candida albicans [18] = experiment: Antifungal activity against stationary phase culture of Candida albicans in GPP medium up to 300 uM after 24 hrs by methylene blue assay
Candida albicans [19] = experiment: Antifungal activity against stationary phase culture of Candida albicans in YPD medium at 10 to 300 uM at 30 degC after 24 hrs by methylene blue assay
Candida albicans [20] = experiment: Antifungal activity against exponential phase culture of Candida albicans at 10 to 300 uM treated directly to growing cultures measured after 4 hrs by methylene blue assay
Candida albicans [21] = experiment: Antifungal activity against stationary phase culture of Candida albicans in GPP medium at 10 to 300 uM at 30 degC after 24 hrs by methylene blue assay

In the case of `CC(C)=CCC/C(C)=C/CC/C(C)=C/CO`, the Activity (Candida albicans [1]) is reported as “inactive”, the Activity (Candida albicans [2]) is reported as “inactive” and the Activity (Candida albicans [3]) is reported as “inactive”. The Activity (Candida albicans [4]) was “inactive”, the Activity (Candida albicans [5]) was “inactive” and the Activity (Candida albicans [6]) was “Active”. The Activity (Candida albicans [7]) was “inactive”, the Activity (Candida albicans [8]) was “Active” and the Activity (Candida albicans [9]) was “Active”. The Activity (Candida albicans [10]) was “inactive”, the Activity (Candida albicans [11]) was “inactive” and the Activity (Candida albicans [12]) was “Active”. The Activity (Candida albicans [13]) was “inactive”, the Activity (Candida albicans [14]) was “inactive” and the Activity (Candida albicans [15]) was “Active”. For the same compound, the Activity (Candida albicans [16]) was “Active”, the Activity (Candida albicans [17]) was “inactive” and the Activity (Candida albicans [18]) was “inactive”. The Activity (Candida albicans [19]) was “inactive”, the Activity (Candida albicans [20]) was “Active” and the Activity (Candida albicans [21]) was “inactive”.
